According to the supplement of paper PMC10307832:

Key:
Experiment in all cases: relative viability (nuclei count vs DMSO), 5 days (fraction); higher = more cells survive
[1] = compound: CC1(COc2ccc3c(c2)ncn3-c2ccc3cccc(N4CCC(N)CC4)c3n2)COC1 [Crenolanib] + CC(=O)Nc1cccc(-n2c(=O)n(C3CC3)c(=O)c3c(Nc4ccc(I)cc4F)n(C)c(=O)c(C)c32)c1 [Trametinib] (partner 0.02 µM)
How it was run: (§1)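 Relative viability equals treated-well nuclei counts divided by vehicle-well nuclei counts. Counts came from 4× images of lung cancer cell lines grown in 1536-well plates for 5 days after pin-tool dosing on the day after seeding. Dosing used one drug alone or a fixed anchor-drug dose plus five library-drug doses (not always all listed) in √10 steps, and values are medians of duplicate plates.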

[2] = compound: CC1(COc2ccc3c(c2)ncn3-c2ccc3cccc(N4CCC(N)CC4)c3n2)COC1 [Crenolanib] + CC1(C)CCC(c2ccc(Cl)cc2)=C(CN2CCN(c3ccc(C(=O)NS(=O)(=O)c4ccc(N[C@H](CCN5CCOCC5)CSc5ccccc5)c(S(=O)(=O)C(F)(F)F)c4)cc3)CC2)C1 [Navitoclax] (partner 0.5 µM)
How it was run: as §1

[3] = compound: CC1(COc2ccc3c(c2)ncn3-c2ccc3cccc(N4CCC(N)CC4)c3n2)COC1 [Crenolanib] + COc1cc2c(Oc3ccc(NC(=O)C4(C(=O)Nc5ccc(F)cc5)CC4)cc3F)ccnc2cc1OCCCN1CCOCC1 [Foretinib] (partner 0.25 µM)
How it was run: as §1

## UMC-11
[1]; first compound 0.01 µM
  relative viability: 0.74
[1]; first compound 0.03162 µM
  relative viability: 0.676
[1]; first compound 0.1 µM
  relative viability: 0.683
[1]; first compound 0.3162 µM
  relative viability: 0.68
[1]; first compound 1 µM
  relative viability: 0.684
[2]; first compound 0.01 µM
  relative viability: 0.333
[2]; first compound 0.03162 µM
  relative viability: 0.331
[2]; first compound 0.1 µM
  relative viability: 0.301
[2]; first compound 0.3162 µM
  relative viability: 0.341
[2]; first compound 1 µM
  relative viability: 0.31
[3]; first compound 0.01 µM
  relative viability: 1.07
[3]; first compound 0.03162 µM
  relative viability: 1.11
[3]; first compound 0.1 µM
  relative viability: 0.95
[3]; first compound 0.3162 µM
  relative viability: 1.21
[3]; first compound 1 µM
  relative viability: 0.947
